Source: publication PMC6803038 (Angewandte Chemie (International ed. in English), 2019)
Where no end group is shown, it is not given here. [ ]: non-standard residue; d: D form. Nle = CCCC[C@H](N)C(=O)O

T1: HDAC8 (UniProt Q9BY41 1-377)
T1 sequence (looked up): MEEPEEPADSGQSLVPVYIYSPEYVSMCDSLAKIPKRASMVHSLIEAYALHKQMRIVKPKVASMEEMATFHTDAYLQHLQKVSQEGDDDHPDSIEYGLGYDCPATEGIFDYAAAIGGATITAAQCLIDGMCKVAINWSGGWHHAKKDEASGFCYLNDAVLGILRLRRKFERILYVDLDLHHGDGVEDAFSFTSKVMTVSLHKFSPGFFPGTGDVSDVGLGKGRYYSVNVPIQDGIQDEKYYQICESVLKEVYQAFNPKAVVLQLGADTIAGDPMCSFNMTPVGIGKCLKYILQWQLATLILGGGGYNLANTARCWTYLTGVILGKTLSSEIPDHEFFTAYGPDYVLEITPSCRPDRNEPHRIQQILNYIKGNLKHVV

B1: 5-FAM-conjugated LinH8a’ (peptide)
chain: CQSLWMN[Nle]
modifications: also: 5-FAM conjugated, site not given here
B2: 5-FAM-conjugated LinH8a (peptide)
chain: CQSLWMNK
modifications: also: 5-FAM conjugated, site not given here

Assays:
[1] = physiological conditions; cited from earlier work
TEV protease = TEV protease (Tobacco etch virus, UniProt P04517); experiment: Fluorescence polarization binding of 5-FAM-conjugated peptides to TEV protease; details: cyclic vs linear counterpart
HDAC8 = target: T1, HDAC8; experiment: fluorescence polarisation

TEV protease, sequence (P04517 2038-2279): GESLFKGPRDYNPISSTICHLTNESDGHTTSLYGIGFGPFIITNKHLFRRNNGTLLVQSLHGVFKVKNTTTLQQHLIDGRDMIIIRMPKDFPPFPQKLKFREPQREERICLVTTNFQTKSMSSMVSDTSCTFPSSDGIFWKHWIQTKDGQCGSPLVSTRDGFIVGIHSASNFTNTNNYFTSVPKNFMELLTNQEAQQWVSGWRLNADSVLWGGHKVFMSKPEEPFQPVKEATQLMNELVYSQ

Row | Molecule | better binding of cyclic peptide than its linear counterpart (TEV protease) | Kd (HDAC8) | other results
1 | C=CC(=O)NCCCC[C@H](N)C(=O)O [AcrK, N^ε-acryloyl-lysine] |  |  | second-order rate constant of reaction with a thiol [1]: 0.004 M⁻¹ s⁻¹
2 | N=C(N)NCCC[C@@H]1NC(=O)[C@H](Cc2c[nH]cn2)NC(=O)[C@H](CO)NC(=O)[C@H](Cc2ccccc2)NC(=O)[C@H](Cc2c[nH]c3ccccc23)NC(=O)[C@H](CCC(N)=O)NC(=O)[C@@H](N)CSCCC(=O)NCCCC[C@@H](C(=O)O)NC1=O [CycTev2, CQWFSHRX] | > 6 fold |  | 
3 | CC[C@H](C)[C@@H]1NC(=O)[C@H](CC(C)C)NC(=O)[C@H](Cc2ccc(O)cc2)NC(=O)[C@H](CC(=O)O)NC(=O)[C@H](CCCNC(=N)N)NC(=O)[C@H](Cc2c[nH]c3ccccc23)NC(=O)[C@@H](N)CSCCC(=O)NCCCC[C@@H](C(=O)O)NC1=O [CycTev1, CWRDYLIX] | > 6 fold |  | 
4 | B1 |  | 31 ± 7 µM | 
5 | B2 |  | > 50 µM | 
